Measured values from ChEMBL document CHEMBL6087405, “Discovery and optimization of anthraquinone derivatives containing substituted bisbenzyloxy groups as a novel scaffold damaged endoplasmic reticulum and against hepatocellular carcinoma cells” (Bioorg Med Chem, 2024).
The source made the active and inactive calls. The calls are words filed in the database; no cut-off is given here.

Columns and labels:
Huh-7 [1] = test: Induction of ER stress in human Huh-7 cells assessed as increase in ATF6 protein level at 2 to 4 uM incubated for 48 hrs by Western blot analysis; assay type: functional, cell-based; details: dose 2-4 µM
Huh-7 [2] = test: Induction of ER stress in human Huh-7 cells assessed as increase in calcium ion content by measuring fluorescence intensity at 4 uM incubated for 24 hrs in presence of […] by fluorescence microscopy based analysis; assay type: functional, cell-based
Huh-7 [3] = test: Induction of morphological change in human Huh-7 cells assessed as nuclear pyknosis at 2 to 4 uM measured after 48 hrs by HE staining based microscopic analysis; assay type: functional, cell-based; details: dose 2-4 µM
Huh-7 [4] = test: Induction of apoptosis in human Huh-7 cells assessed as late apoptotic cells at 2 uM measured after 48 hrs by Annexin V-PE staining based flow cytometry analysis (reference value: 2.06%); assay type: functional
Huh-7 [5] = test: Induction of apoptosis in human Huh-7 cells assessed as viable cells at 2 uM measured after 48 hrs by Annexin V-PE staining based flow cytometry analysis (reference value: 93.69%); assay type: functional; details: read-out: Activity
Huh-7 [6] = test: Induction of apoptosis in human Huh-7 cells assessed as late apoptotic cells at 4 uM measured after 48 hrs by Annexin V-PE staining based flow cytometry analysis (reference value: 2.06%); assay type: functional
Huh-7 [7] = test: Induction of apoptosis in human Huh-7 cells assessed as viable cells at 4 uM measured after 48 hrs by Annexin V-PE staining based flow cytometry analysis (reference value: 93.69%); assay type: functional; details: read-out: Activity
Huh-7 [8] = test: Induction of apoptosis in human Huh-7 cells assessed as viable cells at 8 uM measured after 48 hrs by Annexin V-PE staining based flow cytometry analysis (reference value: 93.69%); assay type: functional; details: read-out: Activity
Huh-7 [9] = test: Induction of mitochondrial ROS release in human Huh-7 cells at 2 uM measured after 24 hrs by fluorescent microscopic analysis; assay type: functional, cell-based
Mitochondrial membrane = test: Disruption of mitochondrial membrane potential in human Huh-7 cells assessed as appearance of punctate shaped mitochondria at 2 uM measured after 24 hrs by laser scanning confocal microscopic analysis; assay type: cell membranes

Question: Which results are given for `COc1ccc(COc2cccc3c2C(=O)c2c(OCc4ccc(OC)cc4)cc(C(=O)NCCNCCO)cc2C3=O)cc1`?
Answer: Activity (Huh-7 [1]): Active; Activity (Huh-7 [2]): inactive; Activity (Huh-7 [3]): Active; Activity (Huh-7 [4]): 4.4%; viability at 2 µM (Huh-7 [5]): 24.1%; Activity (Huh-7 [6]): 7.59%; viability at 4 µM (Huh-7 [7]): 40.2%; viability at 8 µM (Huh-7 [8]): 23.7%; Activity (Huh-7 [9]): Active; Activity (Mitochondrial membrane): Active
